Consider 4 compounds from ChEMBL document CHEMBL1137558, “Synthesis and biological evaluation of new 2-arylcarbonyl-3-trifluoromethylquinoxaline 1,4-di-N-oxide derivatives and their reduced analogues” (2007).

One assay relates to NCI-H460. Put plainly: Growth inhibition of NCI-H460 cells at 100 uM after 48 hrs.
Settings: not given
Set-up: scale not given: the % may be the effect or the level left. In kind it is functional, Homo sapiens.
In the case of `COc1ccc2c(c1)[n+]([O-])c(C(=O)c1ccc3ccccc3c1)c(C(F)(F)F)[n+]2[O-]`, the Activity is <32%.

A further assay concerns MCF7. As to the kind of experiment: Growth inhibition of MCF7 cells at 100 uM after 48 hrs. The arrangement: scale not given: the % may be the effect or the level left. Format: functional, Homo sapiens.
Settings: not given
On to `COc1ccc2c(c1)[n+]([O-])c(C(=O)c1ccc3ccccc3c1)c(C(F)(F)F)[n+]2[O-]`, for which the Activity is listed as <32%.

Compound `O=C(c1ccco1)c1c(C(F)(F)F)[n+]([O-])c2ccc(F)cc2[n+]1[O-]` showed an Activity of 72%.

Another assay has as its system SF-268. Put plainly: Growth inhibition of SF268 cells at 100 uM after 48 hrs. Format: functional, Homo sapiens. The arrangement: scale not given: the % may be the effect or the level left.
Settings: not given
For `COc1ccc2c(c1)[n+]([O-])c(C(=O)c1ccc3ccccc3c1)c(C(F)(F)F)[n+]2[O-]`, the Activity is <32%.

Compound `O=C(c1ccco1)c1c(C(F)(F)F)[n+]([O-])c2ccc(F)cc2[n+]1[O-]` came in with an Activity of 82%.

In another assay the test system is CCRF-CEM. Put plainly: Anticancer activity against CCRF-CEM cells. In kind it is functional. Conditions: Homo sapiens.
In general, GI50 refers to the concentration at which growth is held to half of that of the control. As to `O=C(c1cccs1)c1c(C(F)(F)F)[n+]([O-])c2cc(Cl)c(Cl)cc2[n+]1[O-]`, the GI50 is < 10 nM.

On to `O=C(c1cccs1)c1c(C(F)(F)F)[n+]([O-])c2cc(C(F)(F)F)ccc2[n+]1[O-]`, for which growth was halved (GI50) at 70 nM.

For another assay, the system named is K562. Put plainly: Anticancer activity against K562 cells. Format: functional. The following applies: Homo sapiens.
For the compound `O=C(c1cccs1)c1c(C(F)(F)F)[n+]([O-])c2cc(Cl)c(Cl)cc2[n+]1[O-]`, the GI50 is < 10 nM.

A further assay relates to MOLT-4. Put plainly: Anticancer activity against MOLT4 cells. In kind it is functional. Conditions: Homo sapiens.
`O=C(c1cccs1)c1c(C(F)(F)F)[n+]([O-])c2cc(Cl)c(Cl)cc2[n+]1[O-]`: the GI50 is < 10 nM.

In turn, `O=C(c1cccs1)c1c(C(F)(F)F)[n+]([O-])c2cc(C(F)(F)F)ccc2[n+]1[O-]` came in with a GI50 of 20 nM.

In another assay the test system is SR. Put plainly: Anticancer activity against SR cells. In kind it is functional. The following applies: Homo sapiens.
Consider `O=C(c1cccs1)c1c(C(F)(F)F)[n+]([O-])c2cc(Cl)c(Cl)cc2[n+]1[O-]`, for which the GI50 is < 10 nM.

`O=C(c1cccs1)c1c(C(F)(F)F)[n+]([O-])c2cc(C(F)(F)F)ccc2[n+]1[O-]` had a GI50 of 20 nM.

In a further assay the test system is HL-60. As to the kind of experiment: Anticancer activity against HL60 cells. Format: functional. Conditions: Homo sapiens.
Turning to `O=C(c1cccs1)c1c(C(F)(F)F)[n+]([O-])c2cc(C(F)(F)F)ccc2[n+]1[O-]`, the concentration for 50% growth inhibition (GI50) is < 10 nM.

System in the next assay: not listed separately
Put plainly: Anticancer activity against leukemia cells. The following applies: Homo sapiens, Leukemia cell. In kind it is functional.
`O=C(c1cccs1)c1c(C(F)(F)F)[n+]([O-])c2cc(Cl)c(Cl)cc2[n+]1[O-]` came in with a GI50 of 20 nM.

As for `O=C(c1cccs1)c1c(C(F)(F)F)[n+]([O-])c2cc(C(F)(F)F)ccc2[n+]1[O-]`, halving of growth (GI50) required 30 nM.

Compound `O=C(c1ccco1)c1c(C(F)(F)F)[n+]([O-])c2ccc(F)cc2[n+]1[O-]` displayed a 50% growth inhibitory concentration (GI50) of 300 nM.

System in a further assay: not listed separately
As to the kind of experiment: Anticancer activity against nonsmall lung cancer cells. Format: functional. Conditions: Homo sapiens, Cancer cell lines.
As to `O=C(c1cccs1)c1c(C(F)(F)F)[n+]([O-])c2cc(Cl)c(Cl)cc2[n+]1[O-]`, it took 2040 nM to inhibit growth by half (GI50).

Compound `O=C(c1cccs1)c1c(C(F)(F)F)[n+]([O-])c2cc(C(F)(F)F)ccc2[n+]1[O-]` had a GI50 of 300 nM.

In turn, `COc1ccc2c(c1)[n+]([O-])c(C(=O)c1ccc3ccccc3c1)c(C(F)(F)F)[n+]2[O-]` yielded a GI50 of 800 nM.

`O=C(c1ccco1)c1c(C(F)(F)F)[n+]([O-])c2ccc(F)cc2[n+]1[O-]` had a GI50 of 3130 nM.

System in the next assay: not listed separately
As to the kind of experiment: Anticancer activity against colon cancer cells. In kind it is functional. The following applies: Homo sapiens, Cancer cell lines.
Consider `O=C(c1cccs1)c1c(C(F)(F)F)[n+]([O-])c2cc(Cl)c(Cl)cc2[n+]1[O-]`, for which the GI50 came to 590 nM.

For the compound `O=C(c1cccs1)c1c(C(F)(F)F)[n+]([O-])c2cc(C(F)(F)F)ccc2[n+]1[O-]`, halving of growth (GI50) required 150 nM.

The compound `O=C(c1ccco1)c1c(C(F)(F)F)[n+]([O-])c2ccc(F)cc2[n+]1[O-]` registered a GI50 of 1060 nM.

System in the next assay: not listed separately
As to the kind of experiment: Anticancer activity against CNS cancer cells. In kind it is functional. Conditions: Homo sapiens, Cancer cell lines.
The compound `O=C(c1cccs1)c1c(C(F)(F)F)[n+]([O-])c2cc(Cl)c(Cl)cc2[n+]1[O-]` returned a GI50 of 670 nM.

Regarding `O=C(c1cccs1)c1c(C(F)(F)F)[n+]([O-])c2cc(C(F)(F)F)ccc2[n+]1[O-]`, it took 180 nM to inhibit growth by half (GI50).

As to `O=C(c1ccco1)c1c(C(F)(F)F)[n+]([O-])c2ccc(F)cc2[n+]1[O-]`, growth was halved (GI50) at 2350 nM.

System in the next assay: not listed separately
Put plainly: Anticancer activity against melanoma cells. In kind it is functional. Conditions: Homo sapiens, Melanoma cell.
Compound `O=C(c1cccs1)c1c(C(F)(F)F)[n+]([O-])c2cc(Cl)c(Cl)cc2[n+]1[O-]` gave a GI50 of 940 nM.

Compound `O=C(c1cccs1)c1c(C(F)(F)F)[n+]([O-])c2cc(C(F)(F)F)ccc2[n+]1[O-]` registered a GI50 of 330 nM.

In turn, `O=C(c1ccco1)c1c(C(F)(F)F)[n+]([O-])c2ccc(F)cc2[n+]1[O-]` yielded a GI50 of 1560 nM.

System in the next assay: not listed separately
As to the kind of experiment: Anticancer activity against ovarian cancer cells. In kind it is functional. The following applies: Homo sapiens, Cancer cell lines.
`O=C(c1cccs1)c1c(C(F)(F)F)[n+]([O-])c2cc(Cl)c(Cl)cc2[n+]1[O-]` came in with a GI50 of 1160 nM.

As to `O=C(c1cccs1)c1c(C(F)(F)F)[n+]([O-])c2cc(C(F)(F)F)ccc2[n+]1[O-]`, the GI50 worked out at 200 nM.

For `O=C(c1ccco1)c1c(C(F)(F)F)[n+]([O-])c2ccc(F)cc2[n+]1[O-]`, the concentration for 50% growth inhibition (GI50) amounted to 2030 nM.

System in the next assay: not listed separately
Put plainly: Anticancer activity against renal cancer cells. Format: functional. The following applies: Homo sapiens, Cancer cell lines.
In turn, `O=C(c1cccs1)c1c(C(F)(F)F)[n+]([O-])c2cc(Cl)c(Cl)cc2[n+]1[O-]` came in with a GI50 of 1600 nM.

For the compound `O=C(c1cccs1)c1c(C(F)(F)F)[n+]([O-])c2cc(C(F)(F)F)ccc2[n+]1[O-]`, halving of growth (GI50) required 240 nM.

Compound `O=C(c1ccco1)c1c(C(F)(F)F)[n+]([O-])c2ccc(F)cc2[n+]1[O-]` returned a concentration for 50% growth inhibition (GI50) of 2410 nM.

System in another assay: not listed separately
Put plainly: Anticancer activity against prostate cancer cells. Format: functional. Conditions: Homo sapiens, Cancer cell lines.
Compound `O=C(c1cccs1)c1c(C(F)(F)F)[n+]([O-])c2cc(Cl)c(Cl)cc2[n+]1[O-]` gave a GI50 of 790 nM.

`O=C(c1cccs1)c1c(C(F)(F)F)[n+]([O-])c2cc(C(F)(F)F)ccc2[n+]1[O-]` returned a GI50 of 150 nM.

For `O=C(c1ccco1)c1c(C(F)(F)F)[n+]([O-])c2ccc(F)cc2[n+]1[O-]`, the GI50 amounted to 2600 nM.

System in the next assay: not listed separately
Put plainly: Anticancer activity against breast cancer cells. In kind it is functional. Conditions: Homo sapiens, Cancer cell lines.
On to `O=C(c1cccs1)c1c(C(F)(F)F)[n+]([O-])c2cc(Cl)c(Cl)cc2[n+]1[O-]`, for which the concentration for 50% growth inhibition (GI50) amounted to 790 nM.

In turn, `O=C(c1cccs1)c1c(C(F)(F)F)[n+]([O-])c2cc(C(F)(F)F)ccc2[n+]1[O-]` showed a GI50 of 180 nM.

As for `O=C(c1ccco1)c1c(C(F)(F)F)[n+]([O-])c2ccc(F)cc2[n+]1[O-]`, growth was halved (GI50) at 1330 nM.

System in a further assay: not listed separately
As to the kind of experiment: Anticancer activity against human NCI60 cells. In kind it is functional.
Settings: not given
The TGI is the concentration at which net growth stops. With `O=C(c1cccs1)c1c(C(F)(F)F)[n+]([O-])c2cc(Cl)c(Cl)cc2[n+]1[O-]`, the GI50 amounted to 740 nM and the TGI was determined as 3020 nM.

Regarding `O=C(c1cccs1)c1c(C(F)(F)F)[n+]([O-])c2cc(C(F)(F)F)ccc2[n+]1[O-]`, halving of growth (GI50) required 180 nM and total growth inhibition (TGI) required 470 nM.

As to `O=C(c1ccco1)c1c(C(F)(F)F)[n+]([O-])c2ccc(F)cc2[n+]1[O-]`, halving of growth (GI50) required 1620 nM and the concentration for total growth inhibition (TGI) worked out at 4270 nM.

Staying with this assay, now noted: read-out: LC50 (the source's name).
As to `O=C(c1cccs1)c1c(C(F)(F)F)[n+]([O-])c2cc(Cl)c(Cl)cc2[n+]1[O-]`, the CC50 was 11000 nM.

Regarding `O=C(c1cccs1)c1c(C(F)(F)F)[n+]([O-])c2cc(C(F)(F)F)ccc2[n+]1[O-]`, the CC50 came to 1480 nM.

With `O=C(c1ccco1)c1c(C(F)(F)F)[n+]([O-])c2ccc(F)cc2[n+]1[O-]`, the CC50 came out at 15800 nM.
